Experimental data reported in patent US20220133722A1, “PHARMACEUTICAL COMPOSITIONS” (QUE ONCOLOGY PTY LTD, priority 2019, published 2022).
“And” between values parts separate entries of the source, which are not always exact repeats. Equal values may be shown once. Read-outs that look alike come from different tables or passages of the source.

Experiment: Part 1 PK study: single oral 200 mg dose, fed (high-fat meal) versus fasted
Format: in vivo, human
Conditions: for Vd/F: read-out: Vz/F
Experimental: Part 1 involved analysing the PK parameters obtained following single oral administration of 200 mg tablets of a compound of formula (Ia) in free base form to 12 healthy female subjects following either fed (high-fat meal) or fasted conditions.
For Part 1 • Cmax maximum plasma concentration (observed) • Tmax time to reach the maximum plasma concentration (observed) • Clast last observed quantifiable concentration in plasma • Tlast time of last observed quantifiable concentration in plasma • AUC0-last area under the plasma concentration-time curve from time 0 to the time of the last quantifiable concentration • AUCinf area under the plasma concentration-time curve from time 0 to infinite time, calculated as the sum of AUClast and Clast/kel • % AUCexp percent of AUC extrapolated between AUC0-last and AUCinf • kel apparent terminal elimination rate constant • t1/2 elimination half-life associated with the terminal slope (kel) of the semilogarithmic drug concentration-time curve, calculated as 0.693/kel • CL/F apparent total body clearance of a drug from the plasma calculated by: CL/F=Dose/AUCinf • Vz/F apparent volume of distribution at steady state calculated by: V/F=[…]
An initial dose was administered on Day 1 followed by collection of samples for PK analysis for 96 hours. PK blood samples were taken pre-dose and 0.25, 0.5, 1.0, 1.5, 2, 3, 4, 8, 10, 12, 16, 24, 36, 48, 60, 72 and 96 hours post-dose, and urine samples were taken at 0-4, 4-8, 8-12, 12-24 and 24-48 hours. Ten days after the initial dose of study drug (Day 11), a second dose of drug was administered followed by collection of PK samples. Subjects completed the End-of-Study Visit (EOS) on Day 18, 7 days after the last dose of study drug.
Subjects selected for participation checked into the clinical unit and were randomized (on the morning of Day 1) to food state for study treatment; one half received study drug in the fed state first followed by fasted state for the second dose while the other half received study drug in the fasted state first followed by fed state. Prior to dosing on Day 1, all subjects fasted for a minimum of 10 hours overnight. On the morning of Day 1, subjects dosed in the fed state received the study drug within 10 min of completing a high fat breakfast. […] Plasma and urine samples were collected as set out above for the PK analysis. Subjects remained in the clinic for study procedures and blood draws before checking out after completion of study procedures on the morning of Day 4 (i.e., 72 hours post-dose) returning for the final PK blood draw on Day 5 at 96 hr post-dose. After the first single dose of study drug, subjects completed a 10-day washout period, returning to the clinical unit for check-in on Day 10. Subjects fasted overnight, receiving the second dose of study drug in the fed or fasted state on the morning of Day 11. Subjects were discharged from the clinic after the collection of the final 72-hr PK sample returning the next day for the 96 hr blood draw.
For both Parts 1 and 2, samples were processed and analysed as follows. The method extracted Q-122 and the Internal Standard (IS, Q-122 ^13C4) from human plasma using protein precipitation extraction.
The analytes were separated by HPLC on a Phenomenex Synergi Polar-RP column, and the eluates monitored by an API4000 MS/MS detector in positive MRM mode. The extract was then assayed against a calibration curve. The data were acquired and processed by the data acquisition system Analyst® (Sciex) linked directly to the API4000 MS/MS detector and then processed in Watson LIMS™ (Thermo Scientific), where applicable. The method range is from 10.0 to 2500 ng/mL using 50 μL of matrix and has a run time of approximately 3.2 minutes per sample.
Plasma PK parameters for each dosing regimen and dose level were calculated from the concentrations of Q-122 and its major metabolites measured in pre-dose and post-dose plasma samples. […]

[1] = female, human, plasma, po, 200 mg, single oral 200 mg, fasted, mean
[2] = female, human, plasma, po, 200 mg, single oral 200 mg, fasted, median
[3] = female, human, plasma, po, 200 mg, single oral 200 mg, fed (high-fat meal), mean
[4] = female, human, plasma, po, 200 mg, single oral 200 mg, fed (high-fat meal), median
[5] = single dose 200 mg, fed versus fasted
[6] = single oral 200 mg, fasted, individual subjects
[7] = single oral 200 mg, fasted, max
[8] = single oral 200 mg, fasted, mean
[9] = single oral 200 mg, fasted, median
[10] = single oral 200 mg, fasted, min
[11] = single oral 200 mg, fed (high-fat meal), individual subjects
[12] = single oral 200 mg, fed (high-fat meal), max
[13] = single oral 200 mg, fed (high-fat meal), mean
[14] = single oral 200 mg, fed (high-fat meal), median
[15] = single oral 200 mg, fed (high-fat meal), min
[16] = single oral dose 200 mg, healthy subjects

## c1cnc(NCc2ccc(CNc3ncccn3)cc2)nc1 [Q-122]
200 mg, with fatty meal versus fasted
  bioavailability with a fatty meal: increase in bioavailability
female, human, plasma, oral, 200 mg, single dose 200 mg, fasted, subject 101009 omitted, read-out: Tmax (range over subjects)
  Tmax: 0.5 to 2 h
female, human, plasma, oral, 200 mg, single dose 200 mg, fasted, read-out: Tmax (range over subjects)
  Tmax: 0.5 to 8 h
female, human, plasma, oral, 200 mg, single dose 200 mg, fed, read-out: Tmax (range over subjects)
  Tmax: 0.5 to 10 h
[1]
  AUC(0-inf): 7380 ng·h/mL
  AUC(0-t): 6400 ng·h/mL
  half-life: 21.4 h
  Vd/F: 874 L
female, human, plasma, po, 200 mg, single oral 200 mg, fasted, mean, read-out: Cmax
  Cmax: 620 ng/mL
female, human, plasma, po, 200 mg, single oral 200 mg, fasted, mean, read-out: Tmax
  Tmax: 1.75 h
[2]
  AUC(0-inf): 7390 ng·h/mL
  AUC(0-t): 6330 ng·h/mL
  half-life: 23 h
  Vd/F: 798 L
female, human, plasma, po, 200 mg, single oral 200 mg, fasted, median, read-out: Cmax
  Cmax: 613 ng/mL
female, human, plasma, po, 200 mg, single oral 200 mg, fasted, median, read-out: Tmax
  Tmax: 1.25 h
[3]
  AUC(0-t): 10200 ng·h/mL
  half-life: 12.3 h
  Vd/F: 404 L
female, human, plasma, po, 200 mg, single oral 200 mg, fed (high-fat meal), mean, read-out: Cmax
  Cmax: 987 ng/mL
female, human, plasma, po, 200 mg, single oral 200 mg, fed (high-fat meal), mean, read-out: Tmax
  Tmax: 6.23 h
[4]
  AUC(0-inf): 11800 ng·h/mL
  AUC(0-t): 11300 ng·h/mL
  half-life: 8.98 h
  Vd/F: 233 L
female, human, plasma, po, 200 mg, single oral 200 mg, fed (high-fat meal), median, read-out: Cmax
  Cmax: 929 ng/mL
female, human, plasma, po, 200 mg, single oral 200 mg, fed (high-fat meal), median, read-out: Tmax
  Tmax: 8 h
[5]
  increase in mean AUC after food: 1.6 fold
  increase in mean Cmax after food: 1.6 fold
Single dose 200 mg, fed versus fasted, per subject
  change of Cmax and AUC0-last following food: approximately doubled in 6 out of 11 subjects
[6]
  % AUCexp: 4.3% and 10.3% and 9.1% (2×) and 2.7% and 13.4% and 12.6% and 11.3% and 30.9% and 5.9% and 3.1%
  AUC0-last: 5881.1 ng·h/mL and 9258.3 ng·h/mL and 7702.0 ng·h/mL and 8375.7 ng·h/mL and 4924.9 ng·h/mL and 5410.8 ng·h/mL and 6774.9 ng·h/mL and 3631.6 ng·h/mL and 5150.3 ng·h/mL and 9154.4 ng·h/mL and 6812.7 ng·h/mL and 3704.2 ng·h/mL
  AUCinf: 6144.8 ng·h/mL and 10317.1 ng·h/mL and 8470.5 ng·h/mL and 8608.7 ng·h/mL and 5415.4 ng·h/mL and 6250.2 ng·h/mL and 7756.0 ng·h/mL and 4092.4 ng·h/mL and 9726.1 ng·h/mL and 7031.1 ng·h/mL
  Cl/F: 32.55 L/h and 19.39 L/h and 23.61 L/h and 23.23 L/h and 36.93 L/h and 32.00 L/h and 25.79 L/h and 48.87 L/h and 20.56 L/h and 28.45 L/h
  Clast: 15.50 ng/mL and 26.40 ng/mL and 16.30 ng/mL (2×) and 11.70 ng/mL and 14.20 ng/mL and 22.40 ng/mL and 30.90 ng/mL and 17.70 ng/mL and 39.70 ng/mL and 11.40 ng/mL and 22.00 ng/mL
  Cmax: 611.00 ng/mL and 801.00 ng/mL and 676.00 ng/mL and 1010.00 ng/mL and 103.00 ng/mL and 516.00 ng/mL and 668.00 ng/mL and 403.00 ng/mL and 559.00 ng/mL and 1050.00 ng/mL and 615.00 ng/mL and 422.00 ng/mL
  Tlast: 48.00 h and 96.00 h (3×) and 60.00 h (5×) and 72.00 h (2×) and 24.00 h
  Tmax: 1.00 h and 1.50 h and 0.50 h
  kel: 0.059 1/h and 0.025 1/h and 0.021 1/h and 0.050 1/h and 0.029 1/h (2×) and 0.027 1/h and 0.031 1/h and 0.038 1/h and 0.052 1/h
  t1/2: 11.79 h and 27.80 h and 32.68 h and 13.80 h and 23.94 h and 25.98 h and 22.01 h and 18.04 h and 24.31 h and 13.28 h
[7]
  % AUCexp: 30.9%
  AUC0-last: 9258.3 ng·h/mL
  AUCinf: 10317.1 ng·h/mL
  Cl/F: 48.87 L/h
  Clast: 39.70 ng/mL
  Cmax: 1050.00 ng/mL
  Tlast: 96.00 h
  kel: 0.059 h⁻¹
  t1/2: 32.68 h
[8]
  % AUCexp: 10.23%
  Cl/F: 29.137 L/h
  Clast: 20.375 ng/mL
  Tlast: 67.000 h
  kel: 0.0361 h⁻¹
[9]
  % AUCexp: 9.07%
  Cl/F: 27.12 L/h
  Clast: 17.00 ng/mL
  Tlast: 60.00 h
  kel: 0.0302 h⁻¹
[10]
  % AUCexp: 2.7%
  AUC0-last: 3631.6 ng·h/mL
  AUCinf: 4092.4 ng·h/mL
  Cl/F: 19.39 L/h
  Clast: 11.40 ng/mL
  Cmax: 103.00 ng/mL
  Tlast: 24.00 h
  Tmax: 0.50 h
  kel: 0.021 h⁻¹
  t1/2: 11.79 h
[11]
  % AUCexp: 0.8% and 4.7% and 7.5% and 2.0% and 1.3% and 5.9% and 1.6% (2×) and 1.7% and 0.9% and 1.5%
  AUC0-last: 11087.2 ng·h/mL and 12782.0 ng·h/mL and 4088.9 ng·h/mL and 8498.9 ng·h/mL and 12043.9 ng·h/mL and 7713.8 ng·h/mL and 11821.5 ng·h/mL and 12551.6 ng·h/mL and 14254.9 ng·h/mL and 6505.3 ng·h/mL
  AUCinf: 11171.4 ng·h/mL and 13417.1 ng·h/mL and 4422.3 ng·h/mL and 12197.9 ng·h/mL and 8201.3 ng·h/mL and 11516.0 ng·h/mL and 12030.1 ng·h/mL and 12760.3 ng·h/mL and 14389.6 ng·h/mL and 6606.2 ng·h/mL
  Cl/F: 17.90 L/h and 14.91 L/h and 45.22 L/h and 16.40 L/h and 24.39 L/h and 17.37 L/h and 16.62 L/h and 15.67 L/h and 13.90 L/h and 30.27 L/h
  Clast: 11.00 ng/mL and 14.70 ng/mL and 11.20 ng/mL and 34.20 ng/mL and 15.10 ng/mL and 16.70 ng/mL and 21.50 ng/mL and 15.40 ng/mL and 13.60 ng/mL and 10.90 ng/mL and 12.20 ng/mL
  Cmax: 1520.00 ng/mL and 1180.00 ng/mL and 267.00 ng/mL and 797.00 ng/mL and 603.00 ng/mL and 1400.00 ng/mL and 914.00 ng/mL and 1240.00 ng/mL and 1230.00 ng/mL and 779.00 ng/mL
  Tlast: 36.00 h (3×) and 96.00 h (2×) and 24.00 h and 48.00 h (4×) and 60.00 h
  Tmax: 0.50 h and 10.00 h
  kel: 0.131 1/h and 0.023 1/h and 0.034 1/h (2×) and 0.098 1/h and 0.114 1/h and 0.074 1/h and 0.065 1/h and 0.081 1/h and 0.121 1/h
  t1/2: 5.30 h and 29.71 h and 20.63 h and 7.07 h and 20.23 h and 6.08 h and 9.39 h and 10.63 h and 8.57 h and 5.73 h
[12]
  % AUCexp: 7.5%
  AUC0-last: 14254.9 ng·h/mL
  AUCinf: 14389.6 ng·h/mL
  Cl/F: 45.22 L/h
  Clast: 34.20 ng/mL
  Cmax: 1520.00 ng/mL
  Tlast: 96.00 h
  Tmax: 10.00 h
  kel: 0.131 h⁻¹
  t1/2: 29.71 h
[13]
  % AUCexp: 2.70%
  Cl/F: 21.266 L/h
  Clast: 16.045 ng/mL
  Tlast: 52.364 h
  kel: 0.0775 h⁻¹
[14]
  % AUCexp: 1.64%
  Cl/F: 17.00 L/h
  Clast: 14.70 ng/mL
  Tlast: 48.00 h
  kel: 0.0774 h⁻¹
[15]
  % AUCexp: 0.8%
  AUC0-last: 4088.9 ng·h/mL
  AUCinf: 4422.3 ng·h/mL
  Cl/F: 13.90 L/h
  Clast: 10.90 ng/mL
  Cmax: 267.00 ng/mL
  Tlast: 24.00 h
  Tmax: 0.50 h
  kel: 0.023 h⁻¹
  t1/2: 5.30 h
[16]
  increase of mean AUC0-inf by a high-fat meal compared to the fasted state: ~45%
  increase of mean Cmax by a high-fat meal compared to the fasted state: about 60%
